Values quoted from earlier work, collected in patent US11576929B2, “Composition for inflammatory gastrointestinal disorders” (SUMITOMO SEIKA CHEMICALS CO., LTD., priority 2018, dated 2023).

System: colitis in rats
Settings: direct inhalation into rats

Q: For [C-]#[O+] [CO (gas), carbon monoxide], which colitis is on record?
A: inhibited colitis
